According to patent publication US20130310306A1, “HUMAN LACTOFERRIN DERIVED PEPTIDES AND THEIR USE” (PharmaSurgics In Sweden AB, priority 2011, published 2013):

Assays:
[1] = tested on: TNF-α production in LPS stimulated THP-1 cells; test: Inhibition of TNF-α production in LPS stimulated THP-1 cells (ELISA); conditions: for TNF-α at 40 μM peptide / TNF-α at 4 μM peptide / TNF-α at 10 μM peptide: mean relative secretion; for TNF-α at 40 μM peptide: stimulated level without peptide = 100%, basal = 0%
S. aureus (CCUG 1800) = test: Minimal microbicidal concentration (MMC99) assay, S. aureus; type: cell-based; conditions: 2 hours; for MMC99 μM in 50% SWF: 50% heat inactivated simulated wound fluid
Procedure: Antimicrobial Activity was Measured as Bactericidal Effect on S. Aureus Using Minimal Microbicidal Concentration, MMC99, Assay)
S. aureus (#1800; CCUG, Gothenburg, Sweden) cultured on blood-agar plates [Columbia agar (Oxoid, Basingstoke, UK) supplemented with 5% defibrinated horse blood (National Veterinary Institute (SVA), Uppsala, Sweden)] were transferred to brain heart infusion broth (3.7% BHI; Difco, BD Diagnostics, Franklin Lakes, N.J., USA) and incubated in a shaker at 250 rpm+37° C. over night. The culture was thereafter be diluted 1:10 in fresh BHI broth and incubated for additional two hours to reach log-phase growth. The bacteria were pelleted and suspended in 1% BHI medium (BHI broth diluted 100 times in ultra-pure water) to a concentration of 10^7 bacteria/ml as estimated by measuring optical density at 600 nm. Peptides were serially diluted by two-fold steps from 160 μM to 1.25 μM in 1% BHI medium. The peptides (100 μl) were thereafter incubated with bacteria (5 μl á 10^7 bact./ml) for 2 hours at +37° C. Drops (5 μl) of the suspension were placed on blood agar plates. The blood agar plates were incubated over night at +37° C. The MMC99 values, i.e. the lowest peptide concentration needed to achieve a 99% reduction of viable bacteria, were recorded (Table 3). The concentration of the bacterial suspension used in the assay was confirmed by viable counts on blood agar plates.
S. aureus (#1800; CCUG, Gothenburg, Sweden) cultured on blood-agar plates [Columbia agar (Oxoid, Basingstoke, UK) supplemented with 5% defibrinated horse blood (National Veterinary Institute (SVA), Uppsala, Sweden)] were transferred to brain heart infusion broth (3.7% BHI; Difco, BD Diagnostics, Franklin Lakes, N.J., USA) and incubated in a shaker at 250 rpm+37° C. over night. The culture was thereafter be diluted 1:10 in fresh BHI broth and incubated for additional two hours to reach log-phase growth. The bacteria were pelleted and suspended in 1% BHI medium (BHI broth diluted 100 times in ultra-pure water) to a final concentration of 10^7 bacteria/ml as estimated by measuring optical density at 600 nm. Peptides were serially diluted by two-fold steps from 400 μM to 0.78 μM in either 1% BHI medium or in 50% heat inactivated simulated wound fluid [SWF, containing 1 part 0.1% peptone (Oxoid, Basingstoke, UK) in saline and 1 part fetal bovine serum, diluted 2 times in ultra-pure water].
The peptides (100 μl) were thereafter incubated with bacteria (5 μl á 10^7 bact./ml) for 2 hours at +37° C. Drops (5 μl) of the suspension were placed on blood agar plates. The blood agar plates were incubated over night at +37° C. The MMC99 values, i.e. the lowest peptide concentration needed to achieve a 99% reduction of viable bacteria were recorded (Table 6). The concentration of the bacterial suspension used in the assay was confirmed by viable counts on blood agar plates.
The antimicrobial effects of the peptide 265 (SEQ ID NO: 27) was analysed by MMC99 (minimal microbicidal concentration) assay against S. aureus (CCUG 1800), MRSA (CCUG 41879), P. aeruginosa (ATCC 15442), E. coli (CCUG 31246), S. pyogenes (CCUG 4207), P. acnes (CCUG 1794T), S. epidermidis (ATCC12228), K. pneumoniae (ATCC 13883), A. baumannii (ATCC 19606), and C. albicans (ATCC 64549). The peptides were purchased from Biopeptide Company (San Diego, Calif., USA) and Bachem AG (Bubendorf, Switzerland) and results are presented in Table 8A and 8B respectively.
Peptide was serially diluted in two different assay medium, 1% BHI medium (brain-heart infusion medium) or 50% heat inactivated simulated wound fluid (SWF), and thereafter incubated with the microorganisms for 2 hours. Drops of the suspension were placed on blood agar plates. The MMC99 values, i.e. the lowest peptide concentration needed to achieve a 99% reduction of viable microorganisms, were recorded. As presented in Table 8, the peptide has the ability to kill microorganisms frequently appearing in infections.

[2] = screen 1, 99% reduction of viable bacteria

Sequence	TNF-α at 40 μM peptide ([1]; screen 2, 40 μM peptide) [%]	TNF-α at 4 μM peptide ([1]; screen 2) [%]	TNF-α at 10 μM peptide ([1]; screen 2) [%]	MMC99 μM in 1% BHI medium (S. aureus (CCUG 1800); screen 2) [µM]	MMC99 μM in 50% SWF (S. aureus (CCUG 1800); screen 2) [µM]	TNF-α at 40 μM peptide ([1]; screen 1, 40 μM peptide, 6 h) [%]	MMC99 μM in 1% BHI medium (S. aureus (CCUG 1800); [2]) [µM]	TNF-α activities at 40 μM ([1]; 40 μM peptide, result in words)	TNF-α activity at higher concentrations ([1]; concentrations higher than 40 μM, result in words)
CFLWRRNMRKVRGSRRRRG [Peptide 276]	38.8	111.0	135.3	6.25	12.5	–	–	–	–
CFQWKRAMRKVRGPPVSCIKRDS [Peptide 159]	–	–	–	–	–	60	20	–	–
CFQWKRAMRKVRGSRRRRG [Peptide 155]	–	–	–	–	–	5	10	–	–
CFQWQRNMRKVRGPPVSCIKR [Peptide 157]	–	–	–	–	–	153	20	–	–
EATKCFQWQRNMRKVRGPPVSSIKR [Peptide 156]	–	–	–	–	–	124	20	–	–
FQWKRRKRMRRGSVRRRG [Peptide 266]	101.1	–	–	–	–	–	–	–	–
FQWKRRMRKVRGSKKKKG [Peptide 257]	62.8	114.5	109.1	6.25	200	–	–	–	–
FQWKRRMRKVRGSLRRWG [Peptide 258]	39.8	110.4	115.4	6.25	12.5	–	–	–	–
FQWKRRMRKVRGSRRRRG [Peptide 127]	–	–	–	–	–	9	5	–	–
FQWKRRMRKVRSGRRRGR [Peptide 264]	87.2	–	–	–	–	–	–	–	–
FQWQRKMRKVRGSRRRRG [Peptide 126]	–	–	–	–	–	107	10	–	–
FQWQRNMRKVRGPPSRRRRG [Peptide 154]	–	–	–	–	–	162	10	–	–
FQWQRNMRKVRGPSRRRRG [Peptide 153]	–	–	–	–	–	159	10	–	–
FQWQRNMRKVRGSRRRRG [Peptide 116]	–	–	–	–	–	83	10	–	–
FQWQRNMRKVRGSRRRRG [Peptide 150]	–	–	–	–	–	134	10	–	–
FQWQRNMRKVRGSRRRRG [Peptide 152]	–	–	–	–	–	110	10	–	–
FQWQRNMRKVRGSRRRRG [Peptide 224]	113.4	–	–	12.5	400	–	–	–	–

Sequence	TNF-α at 40 μM peptide ([1]; screen 2, 40 μM peptide) [%]	TNF-α at 4 μM peptide ([1]; screen 2) [%]	TNF-α at 10 μM peptide ([1]; screen 2) [%]	MMC99 μM in 1% BHI medium (S. aureus (CCUG 1800); screen 2) [µM]	MMC99 μM in 50% SWF (S. aureus (CCUG 1800); screen 2) [µM]	TNF-α at 40 μM peptide ([1]; screen 1, 40 μM peptide, 6 h) [%]	MMC99 μM in 1% BHI medium (S. aureus (CCUG 1800); [2]) [µM]	TNF-α activities at 40 μM ([1]; 40 μM peptide, result in words)	TNF-α activity at higher concentrations ([1]; concentrations higher than 40 μM, result in words)
FQWQRNMRKVRGSRRRRG [Peptide 256]	100.5	–	–	12.5	200	–	–	–	–
FQWQRNMRKVRGSRRRRG [Peptide 282]	114.8	–	–	12.5	200	–	–	–	–
FQWQRNMRKVRGSRRRRG [template peptide, reference compound]	–	–	–	–	–	–	–	almost inactive	active
FRWKRRMRKVRGSRRRQG [Peptide 263]	61.4	93.6	100.1	6.25	100	–	–	–	–
FWWKKAMKKVKGTRRRRG [Peptide 273]	52.7	86.2	78.6	6.25	12.5	–	–	–	–
FWWKRAMRKVRGSRRRRG [Peptide 132]	–	–	–	–	–	18	5	–	–
FWWKRAMRKVRLSRRRRG [Peptide 270]	23.1	96.2	71.5	6.25	12.5	–	–	–	–
FWWKRAMRKVRNSRRRRG [Peptide 271]	24.5	101.7	74.4	6.25	6.25	–	–	–	–
GRRRRSFQWKRRMRKVR [Peptide 269]	66.2	115.7	113.8	6.25	200	–	–	–	–
GRRRRSGRVKRMRRKQWF [Peptide 268]	74.4	114.5	129.7	6.25	200	–	–	–	–
KQWKRMMRKVFSVRRWFL [Peptide 262]	12.1	79.6	45.3	6.25	6.25	–	–	–	–
KQWKRWMRKVFVSLRRVG [Peptide 260]	5.9	99.3	74.0	6.25	25	–	–	–	–
RQWKRRMRKVFHSYRRMG [Peptide 259]	33.0	108.4	108.5	6.25	25	–	–	–	–
RQWKRVMRKVFGSRWWRG [Peptide 261]	24.5	86.0	56.2	12.5	12.5	–	–	–	–
VYYKRTARKARGSRRRRG [Peptide 272]	102.8	–	–	–	–	–	–	–	–
WFQWKRAMRKVRGSRRRRG [Peptide 130]	–	–	–	–	–	6	5	–	–
